In patent US20210275545A1, “METHOD OF TREATING CANCER PREFERABLY CHARACTERIZED BY EXPRESSION OF A FUSION PROTEIN COMPRISING A MEMBER OF THE E-TWENTY-SIX FAMILY BY ADMINISTERING AN AGENT THAT INHIBITS THE SYNTHESIS AND/OR ACTIVITY OF CORTISOL” (Yeda Research and Development Co. Ltd., priority 2018, published 2021):

Legend:
GR and FLI1 = GR and FLI1 (Homo sapiens, UniProt P04150); details: combination of DEX (1 μM) and RU486 (1 μM)
Procedure: (§1) (A) The scheme presents the full length Gaussia luciferase protein, along with either the amino-terminal segment (Gluc1), which was fused to an ETS family transcription factor, or the carboxyl terminal segment (Gluc2), which was fused to GR. Amino acid numbers are indicated. cDNAs encoding most members of the ETS family (16 members altogether) were cloned downstream to Gluc1. […] (B) HEK-293T cells (6×10^3) were seeded in 96-well plates. On the next day, cells were transfected with combinations of the Gluc1 plasmid, encoding a fused ETS family member, and the Gluc2 plasmid encoding a fused full-length GR. […] Cells were then lysed and luminescence was determined in biological triplicates. […] (D and E) HEK-293T cells were seeded in 100-mm dishes. Once they reached sub-maximal density (70%), cells were starved overnight for serum factors. […] Cell extracts were then processed for co-immunoprecipitation assays, in which the endogenous FLI1 or ERG protein was immunoprecipitated using a specific antibody, and immunoblotting was performed using an antibody against GR. EB, empty beads; C, solvent control. Images shown are representative of three biological replicates.
(A) HEK-293T cells (6×10^3) were seeded in 96-well plates. On the next day, the cells were transfected with combinations of the Gluc1 plasmid, encoding fused FLI1 or ERG, and the Gluc2 plasmid encoding GR. […] Cells were then lysed and luminescence was determined in each sample. Luminescence of vehicle-treated cells was used for normalization. […] (B) HEK-293T cells were seeded on coverslips in 6-well plates. […] Images were processed using the Zeiss ZEN2011 software. […] Bars, 20 μm.
(§2) Protein-fragment complementation assays (PCA): PCA was performed as previously described.

GR and ETV4 = GR and ETV4 (Homo sapiens, UniProt P04150); details: combination of DEX (1 μM) and RU486 (1 μM)
Procedure: as §1, §2

GR and PU.1 = GR and PU.1 (Homo sapiens, UniProt P04150); details: combination of DEX (1 μM) and RU486 (1 μM)
Procedure: as §1, §2

CHLA9 and RD-ES cells [1] = test: Transwell migration assay of ES cells; type: cell-based; details: DEX 1 μM, RU486 1 μM, D06 10 μM; 20 hours
Procedure: (§4) (A) CHLA9 cells were seeded in 100-mm dishes. Once they reached sub-maximal density, cells were starved overnight for serum factors. […] Cells were then extracted and the lysates were processed for co-immunoprecipitation assays using an antibody against GR followed by immunobloting that used an antibody against EWS. The image shown is representative of 3 biological replicates. Signals were quantified and normalized (see numbers below each lane). EB, empty beads. […] (C-D) CHLA9 cells were seeded on the upper faces of either Transwell migration chambers or Matrigel-coated invasion chambers, and further incubated for 20 hours in full medium. Control siRNAs or siRNAs specific to either GR or EWS-FLI1 were added to cells 24 hours prior to seeding, and both cell migration and invasion were measured 20 hours later. […] Cells that reached the lower faces of the chambers were fixed and stained. Shown are representative images of stained cells. The bar plots show quantification, using ImageJ, of the area covered by cells. *, p≤0.05, **, p≤0.005. Bars, 500 μm. […] The bar plots show quantification, using ImageJ, of the area covered by cells. *, p≤0.05, **, p≤0.005. […]
(§5) (A) RD-ES cells were seeded in 100-mm dishes. […] Cell migration/invasion was determined 20 hours later.

CHLA9 and RD-ES cells [2] = test: Matrigel invasion assay of ES cells; type: cell-based; details: DEX 1 μM, RU486 1 μM, D06 10 μM; 20 hours
Procedure: as §4, §5

RD-ES xenograft = RD-ES xenograft tumor growth and KI67 staining; type: in vivo, SCID mice; details: 1 mg/kg daily
Excerpt: (§3) FIGS. 6A-E. A GR antagonist and a cortisol-lowering drug impede growth of human xenograft models of Ewing's sarcoma. (A) RD-ES cells (2×10^6) were implanted subcutaneously in the right flank of SCID mice. Once tumors reached an approximate size of 150 mm^3, animals were randomized into three groups (n=10). […] The means of tumor volumes (+SEM) are shown. […] (B) Shown are representative images of immunofluorescent staining for KI67 in paraffin-embedded sections of tumors from A, using an antibody against KI67. Scale bars, 100 μm. Also shown is the scatter plot depicting quantification of KI67 staining in randomly selected 4 fields of a representative tumor from each group. […] (C and D) A673 cells (2×10^6) were implanted in female SCID mice. Once tumors reached the size of 150 mm^3, animals were randomized into two groups (n=9). Each group was daily treated with either vehicle, or Metyrapone (25 mg/kg) and tumorigenic growth was monitored. Actual tumor volumes (±SEM) are presented. Also shown are tumors harvested from each group of animals; **p<0.001. […] Luminescence was quantified and presented in a bar graph.
ES animal model studies: All animal experiments were approved by the Weizmann Institute's Animal Care and Use Committee. […] Tumor growth was monitored once every 3 days using a caliper. […]

TC-71 cells = test: Bone-to-lung metastasis of luciferase-labeled TC-71 cells injected into the tibia; type: in vivo, SCID mice; details: TC-71 in tibia; 1 mg/kg intraperitoneally
Excerpt: as §3, with “mice.” for “mice. Once tumors reached an approximate size of 150 mm^3, animals were randomized into three groups (n=10).”, “Once tumors reached the size of 150 mm^3, animals were randomized into two groups (n=9).” left out, “**p<0.001. (E) TC-71 cells (10^6) engineered to stably express luciferase were injected into the tibia of female SCID mice (5 weeks old; 7 mice per group). […] The control group was similarly treated with the solvent (0.1% tween 80). When the primary tumor reached 10% of body weight, the lungs were excised and examined for metastasis using luciferase bioluminescence imaging.” for “**p<0.001.”, “graph. […] Tumor growth was monitored once every 3 days using a caliper. […]” for “graph.”

[3] = tested on: glucocorticoid response element (GRE); details: DEX and RU486 each at 100 nM, 24 hours
Procedure: HEK-293T cells (1.2×10^4) were seeded in 48-well plates. […] In addition, cells were co-transfected with increasing amounts of a GR expression vector (A), a FLI1-encoding vector (B) or with a combination of both a FLI1 vector and a vector encoding GR, either wild type (C) or a mutant receptor (GRdim−, panel D). Luciferase activity was determined, in biological triplicates, 48 hours later and presented in bar plots. Cells that were pre-transfected with the reporter plasmid were used for normalization. *, p≤0.05; ***, p≤0.001. […] This was followed by cell lysis and determination of luciferase activity in biological triplicates.
Luciferase-reporter assays: Cells were co-transfected with a luciferase plasmid containing the consensus glucocorticoid response element (GRE) along with pGL3-Control (Promega, Madison, Wis.). Luciferase activity was determined using the dual-luciferase reporter assay system (Promega). Firefly luciferase luminescence values were normalized to Renilla luminescence.

Chain of GR and ETV4 (P04150 whole entry): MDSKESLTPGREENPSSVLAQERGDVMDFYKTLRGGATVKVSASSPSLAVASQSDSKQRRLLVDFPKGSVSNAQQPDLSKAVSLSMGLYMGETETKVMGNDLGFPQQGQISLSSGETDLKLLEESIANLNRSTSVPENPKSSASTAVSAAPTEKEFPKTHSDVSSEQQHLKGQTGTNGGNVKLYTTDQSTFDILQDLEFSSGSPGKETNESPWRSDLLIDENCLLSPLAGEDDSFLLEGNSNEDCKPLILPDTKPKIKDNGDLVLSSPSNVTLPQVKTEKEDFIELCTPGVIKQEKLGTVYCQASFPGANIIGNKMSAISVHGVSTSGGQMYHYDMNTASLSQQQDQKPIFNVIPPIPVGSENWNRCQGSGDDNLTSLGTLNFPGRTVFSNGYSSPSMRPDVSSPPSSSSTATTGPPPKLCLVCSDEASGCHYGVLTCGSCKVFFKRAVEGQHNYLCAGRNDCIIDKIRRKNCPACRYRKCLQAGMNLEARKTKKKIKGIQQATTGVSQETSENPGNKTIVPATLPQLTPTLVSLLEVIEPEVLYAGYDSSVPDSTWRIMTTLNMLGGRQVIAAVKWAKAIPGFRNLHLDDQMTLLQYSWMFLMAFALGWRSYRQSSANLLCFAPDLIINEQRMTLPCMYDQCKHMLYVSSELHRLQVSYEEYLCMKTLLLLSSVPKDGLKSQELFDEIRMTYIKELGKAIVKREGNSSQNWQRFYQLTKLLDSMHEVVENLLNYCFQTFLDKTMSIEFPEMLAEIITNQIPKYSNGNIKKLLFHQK
Chain of GR and PU.1 (P04150 whole entry): as above
Chain of GR and FLI1 (P04150 whole entry, the tested form may be a part): as the sequence (P04150 whole entry) above

CC#C[C@]1(O)CC[C@H]2[C@@H]3CCC4=CC(=O)CCC4=C3[C@@H](c3ccc(N(C)C)cc3)C[C@@]21C [RU486, Mifepristone]
effect on DEX-induced physical interaction between GR and FLI1 (PCA) (GR and FLI1): significantly inhibited | effect on DEX-induced physical interaction between GR and ETV4 (PCA) (GR and ETV4): only a trend was noted | effect on DEX-induced physical interaction between GR and PU.1 (PCA) (GR and PU.1): significantly inhibited | cell migration (CHLA9 and RD-ES cells [1]): inhibited | matrix invasion (CHLA9 and RD-ES cells [2]): inhibited | tumor growth (RD-ES xenograft): significantly slower tumor growth | KI67 staining of tumor sections (proliferation) (RD-ES xenograft; relative to control group): slower proliferation rates | bone-to-lung metastasis (lung luminescence) (TC-71 cells): lessened lung nodules | effect of co-treatment on DEX-induced GRE activity [3]: inhibitory
